Columns and labels:
[1] = tested on: osteosarcoma cell line HOS; experiment: Calcein AM cytotoxicity assay; type: cell-based, human; conditions: Homo sapiens, 72 hours
In short: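 Cells seeded at 2.500-30.000 per well, pre-incubated 24 h, then exposed 72 h at 37 °C to six 3-fold dilutions (top 166.6 μM), in triplicate. Calcein AM added to 1 μg/ml for 1 h; fluorescence gives growth inhibition, GI50 taken from dose-response curves.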

[2] = tested on: breast carcinoma cell line MCF-7; experiment: Calcein AM cytotoxicity assay; type: cell-based, human; conditions: Homo sapiens, MCF7, 72 hours
NIH-3T3 (fibroblasts) = experiment: Calcein AM cytotoxicity assay; type: cell-based, Mouse; conditions: Mus musculus, NIH3T3, 72 hours
In short: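 Cells seeded at 2.500-30.000 per well, pre-incubated 24 hours, then exposed to compound (usually six 3-fold dilutions, triplicates) for 72 hours at 37° C, 5% CO2; NIH-3T3 grown in DMEM with 10% fetal calf serum. Calcein AM added at 1 μg/ml final, fluorescence read after 1 hour. GI calculated as blank-corrected fluorescence relative to untreated control.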

[3] = tested on: cytokinin-dependent tobacco callus Nicotiana tabacum L. cv. Wisconsin 38; experiment: Tobacco callus biotest (plant cell division); type: cell-based; conditions: at the concentration with highest activity, relative to 10^−5 M kinetin
[4] = tested on: Amaranthus caudatus cotyledon/hypocotyl explants; experiment: Amaranthus bioassay (betacyanin content); type: cell-based, Amaranthus caudatus var. atropurpurea; conditions: at the concentration with highest activity, relative to 10^−5 M kinetin
In short: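 Etiolated A. caudatus cotyledon/hypocotyl explants (72 h seedlings, roots removed) incubated 48 h at 25 °C in darkness on medium with phosphate buffer pH 6.8, tyrosine and test compound. Betacyanin extracted in acetic acid, quantified as A537−A620.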

Compound	GI50 [1]	GI50 [2]	GI50 (NIH-3T3 (fibroblasts))	Activity (%) [10^−5 mol · l^−1 K = 100%] [3]	Activity (%) [10^−5 mol · l^−1 K = 100%] [4]
Clc1nc(Nc2ccccc2)c2[nH]cnc2n1 [Compound 1, 2-Chloro-6-anilinopurine]	> 167 µM	> 167 µM	> 167 µM		
Clc1cccc(Nc2nc(Cl)nc3nc[nH]c23)c1 [Compound 3, 2-Chloro-6-(3-chloroanilino)purine]	> 167 µM	> 167 µM	> 167 µM	110%	166%
Clc1ccc(Nc2nc(Cl)nc3[nH]cnc23)cc1 [Compound 4]	> 167 µM	> 167 µM	> 167 µM	102%	107%
Fc1cccc(Nc2nc(Cl)nc3nc[nH]c23)c1 [Compound 6, 2-Chloro-6-(3-fluoroanilino)purine]	> 167 µM	> 167 µM	> 167 µM	119.7%	120%
Oc1cccc(Nc2nc(Cl)nc3nc[nH]c23)c1 [Compound 9, 2-Chloro-6-(3-hydroxyanilino)purine]	> 167 µM	> 167 µM	> 167 µM	116.2%	115.4%
COc1cccc(Nc2nc(Cl)nc3nc[nH]c23)c1 [Compound 12, 2-Chloro-6-(3-methoxyanilino)purine]	> 167 µM	> 167 µM	> 167 µM	122%	132.3%
Fc1nc(Nc2ccccc2)c2nc[nH]c2n1 [Compound 40]	> 167 µM	> 167 µM	> 167 µM	108.1%	107%
Fc1nc(Nc2cccc(Cl)c2)c2nc[nH]c2n1 [Compound 42]	> 167 µM	> 167 µM	> 167 µM	121%	121%
Oc1cccc(Nc2nc(F)nc3[nH]cnc23)c1 [Compound 48]	> 167 µM	> 167 µM	> 167 µM	104.2%	100.3%
COc1cccc(Nc2nc(F)nc3nc[nH]c23)c1 [Compound 51, 2-Fluoro-6-(3-methoxyanilino)purine]	> 167 µM	> 167 µM	> 167 µM	120.5%	117.2%
Nc1nc(Nc2cccc(Cl)c2)c2nc[nH]c2n1 [Compound 66]	> 167 µM	> 167 µM	> 167 µM		122%
Nc1nc(Nc2cccc(O)c2)c2nc[nH]c2n1 [Compound 72]	> 167 µM	> 167 µM	> 167 µM		119.8%
Fc1cccc(Nc2nc(S)nc3[nH]cnc23)c1 [Compound 83]	> 167 µM	> 167 µM	> 167 µM	102.5%	133.5%
c1coc(CNc2ncnc3nc[nH]c23)c1 [Kinetin, 6-furfurylaminopurine, reference compound]	> 167 µM	> 167 µM	> 167 µM	100%	100%
